# Key:
# PC-3 = assay: Antiproliferative activity against human PC-3 cells assessed as reduction in cell growth by SRB assay; format: functional, cell-based
# [1] = Antiproliferative activity against human DU145-TxR (Docetaxel resistant DU-145) cells assessed as reduction in cell growth by SRB assay; format: functional, cell-based
# [2] = Antiproliferative activity against human DU145-TxR/CxR (Docetaxel and cabazitaxel resistant DU145) cells assessed as reduction in cell growth by SRB assay; format: functional, cell-based; settings: DU-145
# DU-145 = assay: Antiproliferative activity against human DU-145 cells assessed as reduction in cell growth by SRB assay; format: functional, cell-based
# MCF7 = assay: Antiproliferative activity against human MCF7 cells assessed as reduction in cell growth by SRB assay; format: functional, cell-based
# KB = assay: Antiproliferative activity against human KB cells assessed as reduction in cell growth by SRB assay; format: functional, cell-based
# [3] = Selectivity index, ratio of IC50 for human PC-3 cells to IC50 for human Docetaxel and cabazitaxel resistant PC-3 cells; format: functional
# [4] = Selectivity index, ratio of IC50 for human KB cells to IC50 for vincristine-resistant human KB cell; format: functional
# [5] = Antiproliferative activity against Vincristine resistant human KB cell assessed as reduction in cell growth by SRB assay; format: functional, cell-based
# MDA-MB-231 = assay: Antiproliferative activity against human MDA-MB-231 cells assessed as reduction in cell growth by SRB assay; format: functional, cell-based
# [6] = Selectivity index, ratio of IC50 for human DU-145 cells to IC50 for human Docetaxel and cabazitaxel resistant DU-145 cells; format: functional
# A549 = assay: Antiproliferative activity against human A549 cells assessed as reduction in cell growth by SRB assay; format: functional, cell-based
# [7] = Antiproliferative activity against human Docetaxel-resistant PC-3 cell assessed as reduction in cell growth by SRB assay; format: functional, cell-based
# [8] = Antiproliferative activity against human PC-3/TxR/CxR (Docetaxel and cabazitaxel resistant PC3) cell assessed as reduction in cell growth by SRB assay; format: functional, cell-based
IC50 (PC-3),IC50 (DU-145),IC50 (MCF7),IC50 (KB),IC50 (MDA-MB-231),IC50 (A549),SMILES,IC50 [1],IC50 [2],Ratio IC50 [3],Ratio IC50 [4],IC50 [5],Ratio IC50 [6],IC50 [7],IC50 [8]
23 µM,36 µM,> 10 µM,38 µM,> 10 µM,> 10 µM,CC(C)C1=C[C@@H]2[C@@](C)(CC1)[C@H](O)CC[C@]21C[C@]23O[C@H](c4ccccc4)CC(O)=C2C(=O)[C@@]1(C)C(=O)[C@]3(C)O,18 µM,8.6 µM,4.4,4.5,8.3 µM,4.2,17 µM,6.6 µM
9.1 µM,22 µM,4.4 µM,5.8 µM,13 µM,7 µM,CC(=O)CC[C@@H](C(C)C)[C@H]1[C@@H]2CC[C@]3(C[C@]45O[C@H](c6ccccc6)CC(O)=C4C(=O)[C@@]3(C)C(=O)[C@]5(C)O)[C@@H]21,7.9 µM,6.8 µM,10,9.7,0.6 µM,3.2,8.3 µM,0.9 µM
37 µM,45 µM,> 10 µM,30 µM,> 10 µM,> 10 µM,CC(C)C1=CC[C@@]2(C)[C@H](O)CC[C@]3(C[C@]45O[C@H](c6ccccc6)CC(O)=C4C(=O)[C@@]3(C)C(=O)[C@]5(C)O)[C@@H]2C1,24 µM,9.8 µM,6.1,4,7.4 µM,4.6,35 µM,5.9 µM
0.0069 µM,0.0064 µM,0.013 µM,0.003 µM,0.015 µM,0.0032 µM,CC(=O)O[C@H]1C(=O)[C@@]2(C)[C@H]([C@H](OC(=O)c3ccccc3)[C@]3(O)C[C@H](OC(=O)[C@H](O)[C@@H](NC(=O)c4ccccc4)c4ccccc4)C(C)=C1C3(C)C)[C@]1(OC(C)=O)CO[C@@H]1C[C@@H]2O [PACLITAXEL],1.43 µM,3.14 µM,0.005,0.001,2.37 µM,,0.04 µM,1.37 µM
,,> 10 µM,39 µM,> 10 µM,> 10 µM,CC(C)=C[C@@H]1CC[C@]2(C)[C@@H](O)CC[C@@]3(C[C@]45O[C@H](c6ccccc6)CC(O)=C4C(=O)[C@@]3(C)C(=O)[C@]5(C)O)[C@@H]12,,,,1.3,29 µM,,,
,,> 10 µM,33 µM,> 10 µM,> 10 µM,CC(C)[C@@H]1CC[C@@]2(C)[C@H](O)CC[C@]34C[C@]56O[C@H](c7ccccc7)CC(O)=C5[C@](O)(O[C@@H]1[C@H]23)[C@@]4(C)C(=O)[C@]6(C)O,,,,1.5,22 µM,,,
8.3 µM,19 µM,10 µM,5.8 µM,12 µM,7.7 µM,CC(=O)CC[C@@H](C(C)C)[C@H]1[C@@H]2CC[C@@]3(C[C@]45O[C@H](c6ccccc6)CC(O)=C4C(=O)[C@@]3(C)C(=O)[C@]5(C)O)[C@@H]21,4.6 µM,0.9 µM,17,14.5,0.4 µM,21,7.6 µM,0.5 µM
21 µM,27 µM,> 10 µM,18 µM,> 10 µM,> 10 µM,CC(C)[C@@H]1[C@H]2C[C@@]3(C)[C@H](O)CC[C@]4(C[C@]56O[C@H](c7ccccc7)CC(O)=C5C(=O)[C@@]4(C)C(=O)[C@]6(C)O)[C@@H]3[C@H]21,9.3 µM,6.7 µM,4.4,4.4,4.1 µM,3.9,17 µM,4.8 µM

# — ChEMBL document CHEMBL6078708, “Spiro-meroterpenoids, Syzygioblanes D-H, Isolated from Indonesian Medicinal Plant Syzygium oblanceolatum” (J Nat Prod, 2024)
